ChEMBL document CHEMBL3272271, “Folate antagonists. 13. 2,4-Diamino-6-](alpha,alpha,alpha-trifluoro-m-tolyl)thio]quinazoline and related 2,4-diamino-6-[(phenyl- and naphthyl)thio]quinazolines, a unique class of antimetabolites with extraordinary antimalarial and antibacterial effects” (J Med Chem, 1978)
In brackets after ≈: the same amount, converted by molar mass. Activity calls are given as the source filed them. No cut-off for these calls is given here.

Key:
Shigella sonnei = experiment: Antibacterial activity against Shigella sonnei C-10 by gradient plate test; type: functional
Plasmodium berghei [1] = experiment: Antimalarial activity against Plasmodium berghei infected in mouse assessed as disease cure from parasite infection at 5 mg/kg, sc administered 72 hrs after infection; type: functional, organism-based; set-up: dose 5 mg/kg
Plasmodium berghei [2] = experiment: Antimalarial activity against Plasmodium berghei infected in mouse assessed as disease cure from parasite infection at 40 mg/kg, sc administered 72 hrs after infection; type: functional, organism-based; set-up: dose 40 mg/kg
Enterococcus faecalis = experiment: Antibacterial activity against Streptococcus faecalis MGH-2 by gradient plate test; type: functional
Plasmodium berghei [3] = experiment: Antimalarial activity against Plasmodium berghei infected in mouse assessed as increase in mean survival days of host at 2.5 mg/kg, sc administered 72 hrs after infection relative to control; type: functional; details: route subcutaneous
Plasmodium berghei [4] = experiment: Antimalarial activity against Plasmodium berghei infected in mouse assessed as increase in mean survival days of host at 20 mg/kg, sc administered 72 hrs after infection relative to control; type: functional; details: route subcutaneous
Escherichia coli = experiment: Antibacterial activity against Escherichia coli Vogel by gradient plate test; type: functional
Plasmodium berghei [5] = experiment: Antimalarial activity against Plasmodium berghei infected in mouse assessed as disease cure from parasite infection at 640 mg/kg, sc administered 72 hrs after infection; type: functional, organism-based; set-up: dose 640 mg/kg
Plasmodium berghei [6] = experiment: Antimalarial activity against Plasmodium berghei infected in mouse assessed as increase in mean survival days of host at 5 mg/kg, sc administered 72 hrs after infection relative to control; type: functional; details: route subcutaneous
Plasmodium berghei [7] = experiment: Antimalarial activity against Plasmodium berghei infected in mouse assessed as disease cure from parasite infection at 320 mg/kg, sc administered 72 hrs after infection; type: functional, organism-based; set-up: dose 320 mg/kg
Plasmodium berghei [8] = experiment: Antimalarial activity against Plasmodium berghei infected in mouse assessed as disease cure from parasite infection at 20 mg/kg, sc administered 72 hrs after infection; type: functional, organism-based; set-up: dose 20 mg/kg
Pseudomonas aeruginosa = experiment: Antibacterial activity against Pseudomonas aeruginosa 28 by gradient plate test; type: functional
Plasmodium berghei [9] = experiment: Antimalarial activity against Plasmodium berghei infected in mouse assessed as increase in mean survival days of host at 1.25 mg/kg, sc administered 72 hrs after infection relative to control; type: functional; details: route subcutaneous
Plasmodium berghei [10] = experiment: Antimalarial activity against Plasmodium berghei infected in mouse assessed as disease cure from parasite infection at 80 mg/kg, sc administered 72 hrs after infection; type: functional, organism-based; set-up: dose 80 mg/kg
Staphylococcus aureus [11] = experiment: Antibacterial activity against Staphylococcus aureus UC-96 by gradient plate test; type: functional
Plasmodium berghei [12] = experiment: Antimalarial activity against Plasmodium berghei infected in mouse assessed as increase in mean survival days of host at 10 mg/kg, sc administered 72 hrs after infection relative to control; type: functional; details: route subcutaneous
Plasmodium berghei [13] = experiment: Antimalarial activity against Plasmodium berghei infected in mouse assessed as disease cure from parasite infection at 160 mg/kg, sc administered 72 hrs after infection; type: functional, organism-based; set-up: dose 160 mg/kg
Staphylococcus aureus [14] = experiment: Antibacterial activity against drug-resistant Staphylococcus aureus S18713 by gradient plate test; type: functional
[15] = test system: Mycobacterium tuberculosis; experiment: Antibacterial activity against Mycobacterium tuberculosis H37Ra by gradient plate test; type: functional
Plasmodium berghei [16] = experiment: Antimalarial activity against Plasmodium berghei infected in mouse assessed as disease cure from parasite infection at 10 mg/kg, sc administered 72 hrs after infection; type: functional, organism-based; set-up: dose 10 mg/kg
Plasmodium gallinaceum [17] = experiment: Antimalarial activity against trophozoite-induced Plasmodium gallinaceum infected in white leghorn chicken assessed as increase in mean survival days of host at 10 mg/kg, sc administered 72 hrs after infection relative to control; type: functional; details: route subcutaneous
Gallus gallus [18] = experiment: Toxicity in sporozoite-induced Plasmodium gallinaceum infected white leghorn chicken assessed as mortality at 240 mg/kg, sc administered 72 hrs after infection measured up to 6 days; type: organism-based; set-up: dose 240 mg/kg, route subcutaneous; details: in vivo
Plasmodium berghei [19] = experiment: Ratio of quinine hydrochloride SD90 to compound SD90 for trophozoite-induced Plasmodium berghei infected in mouse assessed as daily dose required to suppression of 90% parasite infection administered with diet for 6 days; type: functional
Plasmodium gallinaceum [20] = experiment: Antimalarial activity against trophozoite-induced Plasmodium gallinaceum infected in white leghorn chicken assessed as increase in mean survival days of host at 320 mg/kg, sc administered 72 hrs after infection relative to control; type: functional; details: route subcutaneous
Plasmodium gallinaceum [21] = experiment: Antimalarial activity against sporozoite-induced Plasmodium gallinaceum infected in white leghorn chicken assessed as increase in mean survival days of host at 240 mg/kg, sc administered 72 hrs after infection relative to control; type: functional; details: route subcutaneous
Plasmodium berghei [22] = experiment: Antimalarial activity against trophozoite-induced Plasmodium berghei infected in mouse assessed as daily dose required to suppression of 90% parasite infection administered with diet for 6 days; type: functional
Plasmodium berghei [23] = experiment: Antimalarial activity against Plasmodium berghei infected in mouse assessed as increase in mean survival days of host at 40 mg/kg, sc administered 72 hrs after infection relative to control; type: functional; details: route subcutaneous
Plasmodium gallinaceum [24] = experiment: Antimalarial activity against trophozoite-induced Plasmodium gallinaceum infected in white leghorn chicken assessed as increase in mean survival days of host at 20 mg/kg, sc administered 72 hrs after infection relative to control; type: functional; details: route subcutaneous
Plasmodium gallinaceum [25] = experiment: Antimalarial activity against trophozoite-induced Plasmodium gallinaceum infected in white leghorn chicken assessed as increase in mean survival days of host at 80 mg/kg, sc administered 72 hrs after infection relative to control; type: functional; details: route subcutaneous
Plasmodium berghei [26] = experiment: Antimalarial activity against Plasmodium berghei infected in mouse assessed as increase in mean survival days of host at 160 mg/kg, sc administered 72 hrs after infection relative to control; type: functional; details: route subcutaneous
Plasmodium berghei [27] = experiment: Antimalarial activity against Plasmodium berghei infected in mouse assessed as increase in mean survival days of host at 80 mg/kg, sc administered 72 hrs after infection relative to control; type: functional; details: route subcutaneous
Plasmodium gallinaceum [28] = experiment: Antimalarial activity against sporozoite-induced Plasmodium gallinaceum infected in white leghorn chicken assessed as increase in mean survival days of host at 120 mg/kg, sc administered 72 hrs after infection relative to control; type: functional; details: route subcutaneous
Plasmodium gallinaceum [29] = experiment: Antimalarial activity against trophozoite-induced Plasmodium gallinaceum infected in white leghorn chicken assessed as increase in mean survival days of host at 160 mg/kg, sc administered 72 hrs after infection relative to control; type: functional; details: route subcutaneous
Gallus gallus [30] = experiment: Toxicity in sporozoite-induced Plasmodium gallinaceum infected white leghorn chicken assessed as mortality at 480 mg/kg, sc administered 72 hrs after infection measured up to 6 days; type: organism-based; set-up: dose 480 mg/kg, route subcutaneous; details: in vivo
Plasmodium berghei [31] = experiment: Antimalarial activity against Plasmodium berghei infected in mouse assessed as increase in mean survival days of host at 320 mg/kg, sc administered 72 hrs after infection relative to control; type: functional; details: route subcutaneous
Plasmodium gallinaceum [32] = experiment: Antimalarial activity against trophozoite-induced Plasmodium gallinaceum infected in white leghorn chicken assessed as increase in mean survival days of host at 40 mg/kg, sc administered 72 hrs after infection relative to control; type: functional; details: route subcutaneous

Structure (SMILES): Nc1nc(N)c2c(Cl)c(Sc3ccc4ccccc4c3)ccc2n1
- MIC (Shigella sonnei): > 25 µg/mL
- Activity (Plasmodium berghei [1]): Active
- Activity (Plasmodium berghei [2]): Active
- MIC (Enterococcus faecalis): < 0.25 µg/mL
- MST (Plasmodium berghei [3]): 7.9 days
- MST (Plasmodium berghei [4]): 15.9 days
- MIC (Escherichia coli): 10 µg/mL (≈ 28.3 µM)
- Activity (Plasmodium berghei [5]): Active
- MST (Plasmodium berghei [6]): 12.7 days
- Activity (Plasmodium berghei [7]): Active
- Activity (Plasmodium berghei [8]): Active
- MIC (Pseudomonas aeruginosa): > 25 µg/mL
- MST (Plasmodium berghei [9]): 5.5 days
- Activity (Plasmodium berghei [10]): Active
- MIC (Staphylococcus aureus [11]): 1.5 µg/mL (≈ 4.25 µM)
- MST (Plasmodium berghei [12]): 15.9 days
- Activity (Plasmodium berghei [13]): Active
- MIC (Staphylococcus aureus [14]): 5 µg/mL (≈ 14.2 µM)
- MIC [15]: 10 µg/mL (≈ 28.3 µM)
- Activity (Plasmodium berghei [16]): Active

Structure (SMILES): Nc1nc(N)c2cc(Sc3ccccc3)ccc2n1
- MST (Plasmodium gallinaceum [17]): 0 days
- MIC (Shigella sonnei): < 0.25 µg/mL
- Activity (Gallus gallus [18]): Toxic
- Ratio (Plasmodium berghei [19]): 9.1
- MIC (Enterococcus faecalis): < 0.25 µg/mL
- MST (Plasmodium gallinaceum [20]): 11.4 days
- MST (Plasmodium berghei [4]): 4.7 days
- MST (Plasmodium gallinaceum [21]): 1.6 days
- MIC (Escherichia coli): < 0.25 µg/mL
- SD90 (Plasmodium berghei [22]): 8.2 mg/kg/day
- MST (Plasmodium berghei [23]): 6.3 days
- MST (Plasmodium gallinaceum [24]): 5.6 days
- MST (Plasmodium berghei [6]): 1.1 days
- Activity (Plasmodium berghei [7]): Active
- MIC (Pseudomonas aeruginosa): > 25 µg/mL
- MST (Plasmodium gallinaceum [25]): 6.4 days
- MST (Plasmodium berghei [26]): 14 days
- MIC (Staphylococcus aureus [11]): < 0.25 µg/mL
- MST (Plasmodium berghei [27]): 9.7 days
- MST (Plasmodium berghei [12]): 3.3 days
- Activity (Plasmodium berghei [13]): Active
- MST (Plasmodium gallinaceum [28]): 2.4 days
- MIC (Staphylococcus aureus [14]): < 0.25 µg/mL
- MST (Plasmodium gallinaceum [29]): 7.8 days
- Activity (Gallus gallus [30]): Toxic
- MST (Plasmodium berghei [31]): 14.7 days
- MST (Plasmodium gallinaceum [32]): 6.2 days
